Measurements published in patent publication US6548052B2, “Antibacterial deodorizing compositions” (Innoscent Ltd., priority 1997, dated 2003).

Columns and labels:
S. epidermidis = assay: Inhibition test: samples applied onto bacterial lawns, growth inhibition zone; assay type: cell-based; conditions: for inhibition of S. epidermidis (in words): solvents in water, Table III
Procedure: (§1) The Extraction Process: […] The mixture was vortexed for 10 min and the samples were centrifuged for 30 min at 10000 rpm. The supernatant was collected and referred to as the extract. The extract was then filtered through a 0.22 or a 0.45 μm filter. Inhibition Test: The antimicrobial activity of the various extracts was examined by applying samples (5 μl) onto lawns of axillary bacteria. Following incubation of 24 hours at 37° C., inhibition was determined by measuring the diameter of the growth inhibition zone (in cm). In the tables, “+” indicates full growth inhibition(transparent zone), “−” indicates lack of inhibition, and “+/−” indicates partial inhibition (translucent zone). For the purposes of comparative testing, 5 μl aliquots of either red or black henna extracts (20% w/v in 20% v/v ethanol) are applied to the bacterial lawns.

C. xerosis = assay: as above; assay type: cell-based, Corynebacterium xerosis
Procedure: as §1

Streptococcus aureus = conditions: Handbook of Medicinal Herbs; cited from earlier work
oral species = conditions: Didry et al. 1994; cited from earlier work

For `O=C1C=CC(=O)c2ccccc21` [1,4-naphthoquinone], the “Inhibition of S. epidermidis” value (S. epidermidis; 0.01% in ethanol 20%) was “−”, the “Inhibition of S. epidermidis” value (S. epidermidis; 0.02% in ethanol 20%) was “−” and the “Inhibition of S. epidermidis” value (S. epidermidis; 0.2% in ethanol 20%) was “+”. For the same compound, the “Inhibition of S. epidermidis, zone diameter” value (S. epidermidis; 0.2% in ethanol 20%) was 1.4 cm, the “growth inhibition of S. epidermidis (in words)” value (S. epidermidis; comment on Table I) was “inhibits the growth” and the “Inhibition of C. xerosis” value (C. xerosis; 0.01% in ethanol 20%) was “−”. The “Inhibition of C. xerosis” value (C. xerosis; 0.02% in ethanol 20%) was “−”, the “Inhibition of C. xerosis” value (C. xerosis; 0.2% in ethanol 20%) was “+” and the “Inhibition of C. xerosis, zone diameter” value (C. xerosis; 0.2% in ethanol 20%) was 0.8 cm. The “growth inhibition of C. xerosis (in words)” value (C. xerosis; comment on Table I) was “inhibits the growth”.
With `CCO` [ETHANOL, ethanol] the “Inhibition of S. epidermidis” value (S. epidermidis; solvent content 5%) was “−”, the “Inhibition of S. epidermidis” value (S. epidermidis; solvent content 10%) was “−” and the “Inhibition of S. epidermidis” value (S. epidermidis; solvent content 15%) was “−”. The “Inhibition of S. epidermidis” value (S. epidermidis; solvent content 20%) was “−”, the “Inhibition of S. epidermidis” value (S. epidermidis; solvent content 25%) was “−” and the “Inhibition of S. epidermidis” value (S. epidermidis; solvent content 30%) was “−”. For the same compound, the “Inhibition of S. epidermidis” value (S. epidermidis; solvent content 35%) was “−”, the “Inhibition of S. epidermidis” value (S. epidermidis; solvent content 40%) was “−” and the “Inhibition of S. epidermidis” value (S. epidermidis; solvent content 45%) was “−”. The “Inhibition of S. epidermidis” value (S. epidermidis; solvent content 50%) was “−”, the “Inhibition of S. epidermidis” value (S. epidermidis; solvent content 55%) was “−” and the “Inhibition of S. epidermidis” value (S. epidermidis; solvent content 60%) was “−”. The “Inhibition of S. epidermidis” value (S. epidermidis; solvent content 65%) was “−”, the “Inhibition of S. epidermidis” value (S. epidermidis; solvent content 70%) was “−” and the “Inhibition of S. epidermidis” value (S. epidermidis; solvent content 75%) was “−”. For the same compound, the “Inhibition of S. epidermidis” value (S. epidermidis; solvent content 80%) was “−”, the “Inhibition of S. epidermidis” value (S. epidermidis; solvent content 90%) was “−” and the “Inhibition of S. epidermidis” value (S. epidermidis; solvent content 100%) was “−”. The “inhibition of S. epidermidis (in words)” value (S. epidermidis) was “no inhibition”, the “inhibition of C. xerosis (in words)” value (C. xerosis; above 40% (v/v) in water) was “some inhibition” and the “Inhibition of C. xerosis” value (C. xerosis; solvent content 5%) was “−”. For the same compound, the “Inhibition of C. xerosis” value (C. xerosis; solvent content 10%) was “−”, the “Inhibition of C. xerosis” value (C. xerosis; solvent content 15%) was “−” and the “Inhibition of C. xerosis” value (C. xerosis; solvent content 20%) was “−”. For the same compound, the “Inhibition of C. xerosis” value (C. xerosis; solvent content 25%) was “−”, the “Inhibition of C. xerosis” value (C. xerosis; solvent content 30%) was “−” and the “Inhibition of C. xerosis” value (C. xerosis; solvent content 35%) was “−”. The “Inhibition of C. xerosis” value (C. xerosis; solvent content 40%) was “+/−”, the “Inhibition of C. xerosis, zone diameter” value (C. xerosis; solvent content 40%) was 0.2 cm and the “Inhibition of C. xerosis” value (C. xerosis; solvent content 45%) was “+/−”. For the same compound, the “Inhibition of C. xerosis, zone diameter” value (C. xerosis; solvent content 45%) was 0.2 cm, the “Inhibition of C. xerosis” value (C. xerosis; solvent content 50%) was “+/−” and the “Inhibition of C. xerosis, zone diameter” value (C. xerosis; solvent content 50%) was 0.6 cm. The “Inhibition of C. xerosis” value (C. xerosis; solvent content 55%) was “+/−”, the “Inhibition of C. xerosis, zone diameter” value (C. xerosis; solvent content 55%) was 0.6 cm and the “Inhibition of C. xerosis” value (C. xerosis; solvent content 60%) was “+/−”. For the same compound, the “Inhibition of C. xerosis, zone diameter” value (C. xerosis; solvent content 60%) was 0.8 cm, the “Inhibition of C. xerosis” value (C. xerosis; solvent content 65%) was “+/−” and the “Inhibition of C. xerosis, zone diameter” value (C. xerosis; solvent content 65%) was 0.8 cm. The “Inhibition of C. xerosis” value (C. xerosis; solvent content 70%) was “+/−”, the “Inhibition of C. xerosis, zone diameter” value (C. xerosis; solvent content 70%) was 0.8 cm and the “Inhibition of C. xerosis” value (C. xerosis; solvent content 75%) was “+/−”. The “Inhibition of C. xerosis, zone diameter” value (C. xerosis; solvent content 75%) was 0.8 cm, the “Inhibition of C. xerosis” value (C. xerosis; solvent content 80%) was “+/−” and the “Inhibition of C. xerosis, zone diameter” value (C. xerosis; solvent content 80%) was 0.8 cm. The “Inhibition of C. xerosis” value (C. xerosis; solvent content 90%) was “+”, the “Inhibition of C. xerosis, zone diameter” value (C. xerosis; solvent content 90%) was 1.1 cm and the “Inhibition of C. xerosis” value (C. xerosis; solvent content 100%) was “+”. For the same compound, the “Inhibition of C. xerosis, zone diameter” value (C. xerosis; solvent content 100%) was 1.3 cm.
For `CO` [METHANOL, methanol], the “Inhibition of S. epidermidis” value (S. epidermidis; solvent content 5%) was “−”, the “Inhibition of S. epidermidis” value (S. epidermidis; solvent content 10%) was “−” and the “Inhibition of S. epidermidis” value (S. epidermidis; solvent content 15%) was “−”. The “Inhibition of S. epidermidis” value (S. epidermidis; solvent content 20%) was “−”, the “Inhibition of S. epidermidis” value (S. epidermidis; solvent content 25%) was “−” and the “Inhibition of S. epidermidis” value (S. epidermidis; solvent content 30%) was “−”. The “Inhibition of S. epidermidis” value (S. epidermidis; solvent content 35%) was “−”, the “Inhibition of S. epidermidis” value (S. epidermidis; solvent content 40%) was “−” and the “Inhibition of S. epidermidis” value (S. epidermidis; solvent content 45%) was “−”. For the same compound, the “Inhibition of S. epidermidis” value (S. epidermidis; solvent content 50%) was “−”, the “Inhibition of S. epidermidis” value (S. epidermidis; solvent content 55%) was “−” and the “Inhibition of S. epidermidis” value (S. epidermidis; solvent content 60%) was “−”. For the same compound, the “Inhibition of S. epidermidis” value (S. epidermidis; solvent content 65%) was “−”, the “Inhibition of S. epidermidis” value (S. epidermidis; solvent content 70%) was “−” and the “Inhibition of S. epidermidis” value (S. epidermidis; solvent content 75%) was “−”. For the same compound, the “Inhibition of S. epidermidis” value (S. epidermidis; solvent content 80%) was “−”, the “Inhibition of S. epidermidis” value (S. epidermidis; solvent content 90%) was “−” and the “Inhibition of S. epidermidis” value (S. epidermidis; solvent content 100%) was “−”. The “inhibition of S. epidermidis (in words)” value (S. epidermidis) was “no inhibition”, the “inhibition of C. xerosis (in words)” value (C. xerosis; above 45%) was “some inhibition” and the “Inhibition of C. xerosis” value (C. xerosis; solvent content 5%) was “−”. For the same compound, the “Inhibition of C. xerosis” value (C. xerosis; solvent content 10%) was “−”, the “Inhibition of C. xerosis” value (C. xerosis; solvent content 15%) was “−” and the “Inhibition of C. xerosis” value (C. xerosis; solvent content 20%) was “−”. The “Inhibition of C. xerosis” value (C. xerosis; solvent content 25%) was “−”, the “Inhibition of C. xerosis” value (C. xerosis; solvent content 30%) was “−” and the “Inhibition of C. xerosis” value (C. xerosis; solvent content 35%) was “−”. The “Inhibition of C. xerosis” value (C. xerosis; solvent content 40%) was “−”, the “Inhibition of C. xerosis” value (C. xerosis; solvent content 45%) was “+/−” and the “Inhibition of C. xerosis” value (C. xerosis; solvent content 50%) was “+/−”. For the same compound, the “Inhibition of C. xerosis” value (C. xerosis; solvent content 55%) was “+/−”, the “Inhibition of C. xerosis” value (C. xerosis; solvent content 60%) was “+/−” and the “Inhibition of C. xerosis, zone diameter” value (C. xerosis; solvent content 60%) was 0.8 cm. For the same compound, the “Inhibition of C. xerosis” value (C. xerosis; solvent content 65%) was “+/−”, the “Inhibition of C. xerosis, zone diameter” value (C. xerosis; solvent content 65%) was 0.8 cm and the “Inhibition of C. xerosis” value (C. xerosis; solvent content 70%) was “+/−”. For the same compound, the “Inhibition of C. xerosis, zone diameter” value (C. xerosis; solvent content 70%) was 0.8 cm, the “Inhibition of C. xerosis” value (C. xerosis; solvent content 75%) was “+/−” and the “Inhibition of C. xerosis, zone diameter” value (C. xerosis; solvent content 75%) was 0.8 cm. The “Inhibition of C. xerosis” value (C. xerosis; solvent content 80%) was “+/−”, the “Inhibition of C. xerosis, zone diameter” value (C. xerosis; solvent content 80%) was 0.8 cm and the “Inhibition of C. xerosis” value (C. xerosis; solvent content 90%) was “+/−”. The “Inhibition of C. xerosis, zone diameter” value (C. xerosis; solvent content 90%) was 0.8 cm, the “Inhibition of C. xerosis” value (C. xerosis; solvent content 100%) was “+/−” and the “Inhibition of C. xerosis, zone diameter” value (C. xerosis; solvent content 100%) was 0.8 cm.
In the case of `O=C(O)c1cc(O)c(O)c(O)c1` [gallic acid], the “Inhibition of S. epidermidis” value (S. epidermidis; 0.2% in ethanol 20%) is reported as “−”, the “Inhibition of S. epidermidis” value (S. epidermidis; 0.4% in ethanol 20%) is reported as “+/−” and the “Inhibition of C. xerosis” value (C. xerosis; 0.2% in ethanol 20%) is reported as “−”. For the same compound, the “Inhibition of C. xerosis” value (C. xerosis; 0.4% in ethanol 20%) was “−” and the “inhibition of “Streptococcus aureus”” value (Streptococcus aureus) was “slightly”.
For `O=C1C=C(O)C(=O)c2ccccc21` [lawsone], the “Inhibition of S. epidermidis” value (S. epidermidis; 0.01% in ethanol 20%) was “−”, the “Inhibition of S. epidermidis” value (S. epidermidis; 0.02% in ethanol 20%) was “−” and the “Inhibition of S. epidermidis” value (S. epidermidis; 0.2% in ethanol 20%) was “−”. The “Inhibition of S. epidermidis” value (S. epidermidis; 1.0% in ethanol 50%) was “−”, the “Inhibition of S. epidermidis” value (S. epidermidis; 1.0% in ethanol 100%) was “−” and the “Inhibition of S. epidermidis” value (S. epidermidis; 1.0% in hot water) was “−”. The “antibacterial activity against oral species” value (oral species) was “antibacterial activity”, the “Inhibition of C. xerosis” value (C. xerosis; 0.01% in ethanol 20%) was “−” and the “Inhibition of C. xerosis” value (C. xerosis; 0.02% in ethanol 20%) was “−”. The “Inhibition of C. xerosis” value (C. xerosis; 0.2% in ethanol 20%) was “−”, the “Inhibition of C. xerosis” value (C. xerosis; 1.0% in ethanol 50%) was “−” and the “Inhibition of C. xerosis” value (C. xerosis; 1.0% in ethanol 100%) was “−”. For the same compound, the “Inhibition of C. xerosis” value (C. xerosis; 1.0% in hot water) was “−”.
